Measured values as given in ChEMBL document CHEMBL5126517, “Structure-Activity Relationship in the Leucettine Family of Kinase Inhibitors” (J Med Chem, 2022).
Calls of active or inactive are those of the source.

What was measured:
Cannabinoid receptor 1 [1] = target: T1, Cannabinoid receptor 1 (Homo sapiens, UniProt P21554); test: […] allosteric modulation of CB1 receptor (unknown origin) expressed in HEK293 cell membrane assessed as inhibition of CP-55940-induced [35S]-GTPgammaS binding at 10 uM in presence of GDP by liquid scintillation counting method; format: functional, cell membranes; conditions: DDE = dose-dependent effect
T1 sequence (P21554 whole entry, the tested form may be a part): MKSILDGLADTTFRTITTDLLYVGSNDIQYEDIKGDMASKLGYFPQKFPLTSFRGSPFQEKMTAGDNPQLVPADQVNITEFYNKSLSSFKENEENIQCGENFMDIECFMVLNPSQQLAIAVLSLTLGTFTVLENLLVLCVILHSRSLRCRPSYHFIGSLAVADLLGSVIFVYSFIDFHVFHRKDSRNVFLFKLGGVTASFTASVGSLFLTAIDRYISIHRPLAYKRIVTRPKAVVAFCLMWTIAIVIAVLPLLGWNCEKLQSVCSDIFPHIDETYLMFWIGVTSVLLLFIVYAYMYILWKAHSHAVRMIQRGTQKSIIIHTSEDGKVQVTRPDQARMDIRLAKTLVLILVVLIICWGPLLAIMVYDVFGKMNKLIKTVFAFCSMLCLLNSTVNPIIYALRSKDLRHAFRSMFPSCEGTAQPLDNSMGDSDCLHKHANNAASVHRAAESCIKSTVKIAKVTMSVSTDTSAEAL

[2] = target: Dual specificity protein kinase CLK2 (Mus musculus, UniProt O35491); test: Inhibition of mouse recombinant GST-fused CLK2 expressed in Escherichia coli using GRSRSRSRSRSR peptide as substrate incubated for 30 mins in presence of ATP by scintillation counting method
Chain of Dual specificity protein kinase CLK2 (O35491 whole entry, the tested form may be a part): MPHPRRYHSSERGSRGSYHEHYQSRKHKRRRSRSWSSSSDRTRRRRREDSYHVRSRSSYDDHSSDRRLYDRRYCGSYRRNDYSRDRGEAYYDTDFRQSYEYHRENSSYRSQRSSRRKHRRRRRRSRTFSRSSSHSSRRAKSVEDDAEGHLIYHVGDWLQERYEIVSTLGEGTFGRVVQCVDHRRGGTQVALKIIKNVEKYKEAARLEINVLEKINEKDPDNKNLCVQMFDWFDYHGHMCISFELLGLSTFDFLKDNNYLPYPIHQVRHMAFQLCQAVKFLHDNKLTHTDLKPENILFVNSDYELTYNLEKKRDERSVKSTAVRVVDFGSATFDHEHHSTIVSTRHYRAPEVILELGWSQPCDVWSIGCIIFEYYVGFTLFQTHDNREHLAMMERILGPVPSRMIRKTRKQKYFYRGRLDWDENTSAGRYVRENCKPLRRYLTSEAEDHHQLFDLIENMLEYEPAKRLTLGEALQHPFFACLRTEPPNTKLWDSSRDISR

[3] = target: T2, Dual specificity tyrosine-phosphorylation-regulated kinase 2 (Homo sapiens, UniProt Q92630); test: Inhibition of GST-fused human recombinant DYRK2 expressed in Escherichia coli using GRSRSRSRSRSR peptide as substrate incubated for 30 mins in presence of ATP by scintillation counting method
T2 sequence (Q92630 whole entry): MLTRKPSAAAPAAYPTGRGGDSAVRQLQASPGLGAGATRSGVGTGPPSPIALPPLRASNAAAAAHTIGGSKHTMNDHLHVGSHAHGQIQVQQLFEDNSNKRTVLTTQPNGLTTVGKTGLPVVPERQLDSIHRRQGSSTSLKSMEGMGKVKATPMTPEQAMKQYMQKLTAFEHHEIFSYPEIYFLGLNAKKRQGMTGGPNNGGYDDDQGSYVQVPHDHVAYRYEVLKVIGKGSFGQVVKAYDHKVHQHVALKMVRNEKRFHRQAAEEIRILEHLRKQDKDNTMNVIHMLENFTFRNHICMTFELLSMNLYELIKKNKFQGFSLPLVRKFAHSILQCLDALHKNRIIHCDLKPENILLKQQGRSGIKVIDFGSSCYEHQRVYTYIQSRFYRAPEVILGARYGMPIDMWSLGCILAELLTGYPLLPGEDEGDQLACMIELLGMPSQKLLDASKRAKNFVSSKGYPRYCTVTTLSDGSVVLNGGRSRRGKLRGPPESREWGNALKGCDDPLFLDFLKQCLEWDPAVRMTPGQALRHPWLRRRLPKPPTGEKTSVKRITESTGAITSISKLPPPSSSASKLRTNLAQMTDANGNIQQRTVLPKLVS

[4] = target: Dual specificity protein kinase CLK4 (Mus musculus, UniProt O35493); test: Inhibition of GST-fused mouse recombinant CLK4 expressed in Escherichia coli using GRSRSRSRSRSR peptide as substrate incubated for 30 mins in presence of ATP by scintillation counting method
Chain of Dual specificity protein kinase CLK4 (O35493 whole entry, the tested form may be a part): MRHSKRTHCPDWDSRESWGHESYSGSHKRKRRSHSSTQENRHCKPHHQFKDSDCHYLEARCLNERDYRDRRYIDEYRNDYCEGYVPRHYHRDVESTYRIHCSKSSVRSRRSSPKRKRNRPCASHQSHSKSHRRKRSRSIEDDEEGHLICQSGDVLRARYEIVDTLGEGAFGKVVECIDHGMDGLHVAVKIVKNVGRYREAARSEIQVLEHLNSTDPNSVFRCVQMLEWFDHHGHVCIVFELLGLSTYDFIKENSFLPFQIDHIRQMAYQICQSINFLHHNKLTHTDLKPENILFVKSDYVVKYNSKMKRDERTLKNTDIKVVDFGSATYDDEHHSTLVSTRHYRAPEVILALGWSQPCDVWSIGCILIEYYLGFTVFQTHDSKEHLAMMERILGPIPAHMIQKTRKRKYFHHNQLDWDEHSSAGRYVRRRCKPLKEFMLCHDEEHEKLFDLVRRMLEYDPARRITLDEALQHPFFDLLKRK

[5] = target: T3, Dual specificity tyrosine-phosphorylation-regulated kinase 3 (Homo sapiens, UniProt O43781); test: Inhibition of GST-fused human recombinant DYRK3 expressed in Escherichia coli using GRSRSRSRSRSR peptide as substrate incubated for 30 mins in presence of ATP by scintillation counting method
T3 sequence (O43781 whole entry): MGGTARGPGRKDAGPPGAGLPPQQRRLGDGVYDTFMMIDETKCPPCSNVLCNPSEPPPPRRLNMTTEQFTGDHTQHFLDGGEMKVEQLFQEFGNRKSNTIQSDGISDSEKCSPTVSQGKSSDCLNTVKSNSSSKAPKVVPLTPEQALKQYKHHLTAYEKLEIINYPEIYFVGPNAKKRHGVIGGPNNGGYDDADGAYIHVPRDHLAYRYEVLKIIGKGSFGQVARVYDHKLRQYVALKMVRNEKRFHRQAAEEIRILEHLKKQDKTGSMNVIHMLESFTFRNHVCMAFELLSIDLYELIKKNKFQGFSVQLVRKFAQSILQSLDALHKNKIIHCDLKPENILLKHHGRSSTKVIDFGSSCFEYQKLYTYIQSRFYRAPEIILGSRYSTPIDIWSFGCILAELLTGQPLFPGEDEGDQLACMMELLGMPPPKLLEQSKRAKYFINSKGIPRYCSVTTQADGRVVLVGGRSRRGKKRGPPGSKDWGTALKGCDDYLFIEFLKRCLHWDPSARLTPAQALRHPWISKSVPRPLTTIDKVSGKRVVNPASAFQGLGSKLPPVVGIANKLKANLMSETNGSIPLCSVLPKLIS

Cannabinoid receptor 1 [6] = target: T1, Cannabinoid receptor 1; test: Antagonist activity at CP-55940-activated CB1 receptor (unknown origin) at 10 uM by beta-arrestin assay relative to control; format: functional; set-up: scale not given: the % may be the effect or the level left
Cannabinoid receptor 1 [7] = target: T1, Cannabinoid receptor 1; test: Displacement of [3H]-CP55940 from CB1 receptor (unknown origin) expressed in HEK293 cell membrane assessed as dissociation constant at 10 uM by liquid scintillation counting method; format: cell membranes; conditions: filed as modulator
HT-22 [8] = test: Neuroprotective activity against glutamate-induced cell death in mouse HT-22 cells treated for 24 hrs by MTS assay; format: functional, cell-based; conditions: HT-22, 24 h
[9] = target: Dual specificity tyrosine-phosphorylation-regulated kinase 1A (Homo sapiens, UniProt Q13627); test: Inhibition of GST-fused human recombinant DYRK1A expressed in Escherichia coli using GRSRSRSRSRSR peptide as substrate incubated for 30 mins in presence of ATP by scintillation counting method
Cannabinoid receptor 1 [10] = target: T1, Cannabinoid receptor 1; test: Antagonist activity at CP-55940-activated CB1 receptor (unknown origin) by beta-arrestin assay; format: functional
[11] = target: Dual specificity protein kinase CLK1 (Mus musculus, UniProt P22518); test: Inhibition of GST-fused mouse recombinant CLK1 expressed in Escherichia coli using GRSRSRSRSRSR peptide as substrate incubated for 30 mins in presence of ATP by scintillation counting method
Chain of Dual specificity protein kinase CLK1 (P22518 whole entry, the tested form may be a part): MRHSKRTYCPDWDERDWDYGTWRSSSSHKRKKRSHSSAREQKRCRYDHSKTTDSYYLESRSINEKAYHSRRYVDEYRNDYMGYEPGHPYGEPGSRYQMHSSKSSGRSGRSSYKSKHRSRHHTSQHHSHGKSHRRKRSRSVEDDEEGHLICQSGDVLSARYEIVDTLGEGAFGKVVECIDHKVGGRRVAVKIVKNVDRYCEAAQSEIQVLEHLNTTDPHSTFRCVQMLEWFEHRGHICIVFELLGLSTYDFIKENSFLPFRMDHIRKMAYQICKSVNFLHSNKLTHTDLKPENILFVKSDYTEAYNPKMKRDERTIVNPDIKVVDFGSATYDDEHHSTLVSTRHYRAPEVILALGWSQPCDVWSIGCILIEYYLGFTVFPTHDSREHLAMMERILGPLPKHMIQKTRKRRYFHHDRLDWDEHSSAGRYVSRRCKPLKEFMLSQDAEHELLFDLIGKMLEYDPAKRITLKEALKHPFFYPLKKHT

[12] = Neurotoxicity against mouse HT-22 cells assessed as cell survival at 20 uM treated for 24 hrs by MTS assay; format: toxicity, cell-based; conditions: ht-22, 24 h
[13] = target: T4, Glycogen synthase kinase-3 (Sus scrofa, UniProt B2LUN4+I6LNT8); test: Inhibition of porcine brain GSK-3alpha/beta using YRRAAVPPSPSLSRHSSPHQpSEDEEE as substrate incubated for 30 mins in presence of ATP by scintillation counting method; format: tissue-based
[14] = target: Dual specificity tyrosine-phosphorylation-regulated kinase 1B (Homo sapiens, UniProt Q9Y463)
Chain of Dual specificity tyrosine-phosphorylation-regulated kinase 1B (Q9Y463 whole entry): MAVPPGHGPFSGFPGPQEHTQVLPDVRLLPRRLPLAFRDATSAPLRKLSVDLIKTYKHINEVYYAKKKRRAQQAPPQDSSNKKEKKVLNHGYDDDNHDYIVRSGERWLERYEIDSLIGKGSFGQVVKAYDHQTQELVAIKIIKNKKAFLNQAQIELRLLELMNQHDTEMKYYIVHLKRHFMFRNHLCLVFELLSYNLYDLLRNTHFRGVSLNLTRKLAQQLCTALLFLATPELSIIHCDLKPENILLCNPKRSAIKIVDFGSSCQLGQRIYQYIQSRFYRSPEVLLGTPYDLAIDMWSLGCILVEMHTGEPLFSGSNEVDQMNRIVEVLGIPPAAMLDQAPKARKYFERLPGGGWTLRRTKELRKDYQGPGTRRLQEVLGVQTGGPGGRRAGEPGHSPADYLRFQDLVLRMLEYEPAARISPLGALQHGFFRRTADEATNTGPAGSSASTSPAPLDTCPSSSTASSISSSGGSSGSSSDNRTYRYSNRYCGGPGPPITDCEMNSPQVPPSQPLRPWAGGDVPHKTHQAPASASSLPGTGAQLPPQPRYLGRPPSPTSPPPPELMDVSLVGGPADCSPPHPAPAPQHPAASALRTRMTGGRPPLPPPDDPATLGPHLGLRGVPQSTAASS

U2OS = test: Induction of PI3K/mTor-dependent autophagy in human U2OS cells assessed as number of LC3 foci per cell at 10 uM measured after 4 hrs; format: cell-based; conditions: filed as activator
Casein kinase 2 = Casein kinase 2 (Homo sapiens, UniProt P67870+P68400+P19784+Q8NEV1); test: Inhibition of human recombinant CK2 using RRRDDDSDDD peptide as substrate incubated for 30 mins in presence of ATP by scintillation counting method; format: protein assay
[15] = Neurotoxicity against mouse HT-22 cells assessed as cell survival treated for 24 hrs by MTS assay; format: toxicity, cell-based
[16] = target: Serine/threonine-protein kinase pim-1 (Homo sapiens, UniProt P11309); test: Inhibition of human recombinant Pim1 expressed in Escherichia coli using histone H1 as substrate incubated for 30 mins in presence of ATP by scintillation counting method
Chain of Serine/threonine-protein kinase pim-1 (P11309 whole entry): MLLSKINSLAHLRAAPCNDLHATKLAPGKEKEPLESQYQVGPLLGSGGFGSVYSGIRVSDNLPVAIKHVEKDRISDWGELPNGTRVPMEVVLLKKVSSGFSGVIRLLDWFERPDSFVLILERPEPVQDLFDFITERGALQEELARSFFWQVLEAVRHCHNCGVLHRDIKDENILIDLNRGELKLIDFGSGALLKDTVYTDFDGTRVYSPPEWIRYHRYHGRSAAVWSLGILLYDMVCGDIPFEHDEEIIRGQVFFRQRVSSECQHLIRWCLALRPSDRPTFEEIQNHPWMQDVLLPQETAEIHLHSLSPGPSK

[17] = target: T4, Glycogen synthase kinase-3; test: Inhibition of porcine brain GSK-3alpha/beta at 10 uM using YRRAAVPPSPSLSRHSSPHQpSEDEEE as substrate incubated for 30 mins in presence of ATP by scintillation counting method; format: tissue-based
[18] = target: Dual specificity protein kinase CLK3 (Mus musculus, UniProt O35492); test: Inhibition of GST-fused mouse recombinant CLK3 expressed in Escherichia coli using GRSRSRSRSRSR peptide as substrate incubated for 30 mins in presence of ATP by scintillation counting method
Chain of Dual specificity protein kinase CLK3 (O35492 whole entry, the tested form may be a part): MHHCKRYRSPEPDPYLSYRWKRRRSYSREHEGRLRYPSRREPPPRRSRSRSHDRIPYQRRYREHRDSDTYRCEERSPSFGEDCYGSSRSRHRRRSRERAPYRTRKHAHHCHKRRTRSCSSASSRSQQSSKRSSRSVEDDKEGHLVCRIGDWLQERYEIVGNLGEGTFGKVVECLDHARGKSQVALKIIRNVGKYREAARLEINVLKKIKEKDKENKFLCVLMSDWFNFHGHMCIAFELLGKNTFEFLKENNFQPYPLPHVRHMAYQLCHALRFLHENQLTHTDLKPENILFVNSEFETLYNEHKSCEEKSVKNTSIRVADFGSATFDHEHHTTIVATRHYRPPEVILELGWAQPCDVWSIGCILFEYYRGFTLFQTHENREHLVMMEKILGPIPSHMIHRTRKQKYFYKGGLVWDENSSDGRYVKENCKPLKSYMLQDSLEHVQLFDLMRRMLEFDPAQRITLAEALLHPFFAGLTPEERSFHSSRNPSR

HT-22 [19] = test: Modulation of CLK1 pre-mRNA splicing in mouse HT-22 cells assessed as inclusion of CLK1 exon 4 by measuring change in threshold cycle at 10 uM measured after 4 hrs by real time PCR analysis; format: cell-based; conditions: filed as modulator
HT-22 [20] = test: Induction of PI3K/mTor-dependent autophagy in mouse HT-22 cells assessed as number of LC3 foci per cell at 10 uM incubated for 24 hrs using Lamp-1 staining based immunofluorescence microscopy; conditions: filed as activator
HT-22 [21] = test: Induction of PI3K/mTor-dependent autophagy in mouse HT-22 cells assessed as number of LC3 foci per cell at 10 uM incubated for 24 hrs using Anti-LC3 staining based immunofluorescence microscopy; conditions: filed as activator
[22] = Drug metabolism in human liver microsomes assessed as GSH reduction metabolite at 50 uM incubated for 60 mins in presence of 13C2,15N-GSH by LC-MS/MS analysis; format: ADME, Microsome; conditions: 1 h
Mus musculus = test: Reduction in phosphorylated Tau Thr212 residue in Tg(Dyrk1a) mutant C57BL/6J mouse brain dosed at 20 mg/kg/day, ip for 19 days by western blot analysis; format: functional, organism-based; conditions: time 19.0 day
HT-22 [23] = conditions: Mus musculus, filed as modulator, dose 10.0 µM, time 6.0 hrs
[24] = Reduction in phosphorylated Tau Thr212 residue in wild-type C57BL/6J mouse brain dosed at 20 mg/kg/day, ip for 19 days by western blot analysis; format: toxicity, organism-based; conditions: in vivo, 456 h, time 19 day
HT-22 [25] = test: Modulation of CLK1 pre-mRNA splicing in mouse HT-22 cells assessed as maximal effect of CLK1 exon 4 inclusion measured after 3 hrs by qPCR analysis; format: functional, cell-based
HT-22 [26] = test: Neuroprotective activity against glutamate-induced cell death in mouse HT-22 cells at 10 uM incubated for 24 hrs by phase contrast microscopy; format: functional, cell-based
[27] = Neurotoxicity against mouse HT-22 cells assessed as cell survival at 10 uM treated for 24 hrs by MTS assay; format: toxicity, cell-based; conditions: ht-22, 24 h

SMILES	Activity (Cannabinoid receptor 1 [1])	IC50 [2]	IC50 [3]	IC50 [4]	IC50 [5]	Activity (Cannabinoid receptor 1 [6]; filed as antagonist)	Kb (Cannabinoid receptor 1 [7])	EC50 (HT-22 [8])	IC50 [9]	IC50 (Cannabinoid receptor 1 [10])	IC50 [11]	Activity [12]	IC50 [13]	IC50 [14]	Activity (U2OS)	IC50 (Casein kinase 2)	IC50 [16]	Activity (Cannabinoid receptor 1 [6])	other results
O=C1NC(Nc2ccc(N3CCCCC3)cc2)=N/C1=C\c1ccc2c(c1)OCO2	Dde	> 10000 nM	230 nM	1500 nM	> 10000 nM	81.7%	3300 nM	660 nM	700 nM	91.3 nM	4200 nM	Non-Toxic	> 10000 nM	2100 nM	11.4	–	–	–	–
O=C1N=C(Nc2ccccc2)S/C1=C\c1ccc2c(c1)OCO2	–	> 10000 nM	> 10000 nM	1200 nM	–	–	–	–	10000 nM	–	800 nM	–	–	610 nM	5.9	2500 nM	> 10000 nM	-5.9%	EC50 at 24 h [15]: > 20000 nM; IC50 [17]: 2500 nM; IC50 [18]: 430 nM; deltaCT (HT-22 [19]): -0.09
O=C1NC(Nc2ccccc2)=N/C1=C\c1ccc2c(c1)OCCCO2	Dde	–	> 10000 nM	> 10000 nM	–	89.3%	1200 nM	12500 nM	–	–	> 10000 nM	Non-Toxic	–	> 10000 nM	5.6	–	> 10000 nM	–	–
COc1cc(/C=C2\N=C(Nc3ccccc3)NC2=O)ccc1O	–	140 nM	33 nM	23 nM	120 nM	–	–	1280 nM	70 nM	4700 nM	21 nM	–	1100 nM	62 nM	11.7	620 nM	180 nM	1.6%	Activity (HT-22 [20]): Active; IC50 at 24 h [15]: > 20000 nM; Activity (HT-22 [21]): Active; IC50 [18]: 610 nM
COc1cc(/C=C2\N=C(Nc3ccc(N4CCN(C)CC4)cc3)NC2=O)ccc1O	–	–	–	–	–	–	–	> 20000 nM	–	–	–	Non-Toxic	200 nM	–	22	–	–	14.3%	Drug metabolism [22]: Metabolite_Notdetected
O=C1NC(Nc2ccccc2)=N/C1=C\c1ccc2c(c1)OCO2	Dde	–	–	–	–	96.8%	2200 nM	6020 nM	–	–	–	Non-Toxic	600 nM	–	11.6	510 nM	–	–	Activity (HT-22 [20]): Active; Activity (Mus musculus): Active; IC50 at 24 h [15]: > 20000 nM; deltaCT (HT-22 [23]): 8.18; Activity (HT-22 [21]): Active; Activity (Cannabinoid receptor 1 [6]; filed as antagonist, tested as the 2H-labelled form): 92.7%; Activity [24]: Non-Toxic; Activity (HT-22 [25]): Active; Activity (HT-22 [26]): Active; Activity (U2OS; tested as the 2H-labelled form): 7.3; deltaCT (HT-22 [19]): 8.18; deltaCT (HT-22 [19]; tested as the 2H-labelled form): 7.71
COc1cc(/C=C2\N=C(Nc3ccc(N4CCCCC4)cc3)NC2=O)ccc1O	–	> 10000 nM	410 nM	1200 nM	300 nM	84.1%	–	1350 nM	280 nM	297 nM	750 nM	–	> 10000 nM	410 nM	10.9	–	6300 nM	–	Activity [27]: Non-Toxic
